In US8470379B2, “Use of a potent product extracted from rhizomes of zingiber officinale in treating a disease associated with Helicobacter pylori” (Medical and Pharmaceutical Industry Technology and …, priority 2007, dated 2013):

Columns and labels:
[1] = test system: Helicobacter pylori (ATCC 43504); assay: Anti-microbial test: MIC by agar dilution method; format: cell-based; details: ATCC43504, Columbia agar + 7% rabbit blood, 35° C., 72 hours, microaerophilic, highest concentration 300 μg/ml, read-out: Minimum inhibitory concentration (MIC)
Protocol: Minimum inhibitory concentration (MIC) of sample on Helicobacter pylori was determined by the agar dilution method [Malanosk G. J. et al. Effect of pH variation on the susceptibility of Helicobacter pylori to three marcolide antimicrobial agents and temafloxacin. Eur. J. Clin. Microbial Infect Dis. 12: pp. 131-133, 1993.]. The test substance was dissolved and serially diluted in DMSO to desired stock concentrations. For each concentration tested, a 0.01 ml aliquot is added to a 48-well plate containing 0.99 ml of Columbia agar base (Oxoid, England) supplemented 7% defibrinated rabbit blood. The inoculum of Helicobacter pylori (ATCC 43504) is prepared by suspending in brain heart infusion broth to a density of 5×10^5 CFU/ml. The final maximal concentration of DMSO is 1% and the initial test substance concentration is 300 μg/ml. The plates are incubated at 35° C. for 72 hours in the microaerophilic condition (Mixed gas N2 85%, CO2 10% and O2 5%) and then visually examined and scored positive (+) for inhibition of the colonies growth or negative (−) for no effect upon growth colonies. Vehicle-control and gentamicin are used as blank and positive controls, respectively. Each concentration is evaluated in duplicate.

[2] = test system: Helicobacter pylori-induced gastric ulcer; assay: Helicobacter pylori-induced gastric ulcer in mice; format: in vivo, male CD-1 (Crl.) derived mice; details: 35 mg/kg orally for 7 days
Protocol: Effects of samples on Helicobacter pylori-induced gastric ulcer were evaluated as described previously [Marchetti, M., Arico, B., Burroni, D., Figura, N., Rappuoli, R. and Ghiara, P. Development of a mouse model of Helicobacter pylori infection that mimics human disease. Science 267: 1655-1658, 1995.]. Groups of 5 male CD-1 (Crl.) derived mice weighing 24±2 g were fasted for 18 hours prior to intragastric inoculation of clinical isolated Helicobacter pylori in suspension at 3.2×10^9 colony formation units/0.4 ml/mouse. Test samples and vehicle (2% CMC, 10 ml/kg) were each administered orally to test animals, starting one hour after the Helicobacter pylori inoculation, dosing twice daily (10:00 am and 4:00 pm) for 7 consecutive days. Omeprazole (1 mg/kg) and clarithromycin (10 mg/kg), in combination, were used for the positive control agents and administered orally to test animal once daily for 7 consecutive days under the same schedule. […] Gastric ulceration scored at four levels according to the degree of hemorrhage and severity of ulcerative lesions: • 0=normal appearance • 1=mild red spots • 2=moderate red spots and/or hemorrhage spots • 3=marked hemorrhage spots
Percentage inhibition on Helicobacter pylori-induced gastric ulcer was calculated as follows: (Scores of vehicle group−Scores of test group)/(Scores of vehicle group)×100% The results are shown in Table 3.

MIC [1] [µg/mL] | Compound | Percentage inhibition on Helicobacter pylori-induced gastric ulcer [2] [%]
10 | CCCCC[C@H](O)CC(=O)CCc1ccc(O)c(OC)c1 [Sample 6-Gingerol, 6-Gingerol] | 25
10 | CCCCC/C=C/C(=O)CCc1ccc(O)c(OC)c1 [Shogaol] | –
